# Reference: PMC11017298, “Macrocyclic Oxindole Peptide Epoxyketones—A Comparative Study of Macrocyclic Inhibitors of the 20S Proteasome” (ACS Medicinal Chemistry Letters, 2024)
# Read-outs that look alike come from different tables or passages of the source.
# What was measured:
# Assay type in all cases: biochemical
# [1] = molecular target: T1, human 20S proteasome ChT-L activity (Homo sapiens, UniProt P28074); assay: Fluorometric kinetic enzyme assay, 20S proteasome ChT-L activity (Suc-LLVY-AMC); conditions: for IC50: constitutive human 20S proteasome, Suc-LLVY-AMC, 37 C, 10 min
# T1 construct: human RBC proteasome was purchased from South Bay Bio; purchased South Bay Bio; host or cells: human red blood cells
# Protocol: (§1) Fluorometric kinetic enzyme inhibition assays (for details, see Supporting Information) were performed for the ChT-L activity of the constitutive 20S proteasome to compare IC50 values for 5 with linear analogue 6, unoxidized macrocycles 15a and 15b, and macrocyclic C-terminal amide 12 (Table 1). Furthermore, inhibition of the 20S proteasomal ChT-L activity was compared with T-L and PGPH-L activities and with inhibition of serine protease chymotrypsin and cysteine proteases cathepsin B and m-calpain.
# (§2) 6. In Vitro Kinetic Enzyme Assays
# (§3) The inhibitory potency and selectivity of the final compounds were tested using in vitro fluorescent enzyme kinetics. The enzyme assays used the fluorogenic substrate Suc-Leu-Leu-Val-Tyr-AMC (Suc-LLVY-AMC) and either the human 20S proteasome or alternate proteases chymotrypsin, m-calpain and cathepsin B. For cathepsin B, Cbz-Arg-Arg-AMC was used as the fluorogenic substrate. Kinetic enzyme assays were carried out on a fluorescent 96-well plate reader and AMC-substrate hydrolysis was measured at 353 nm excitation and 442 nm emission. Wells with inhibitor and wells with control solution were run in tandem. Vi and v0 were calculated from the slope of the measured relative fluorescent units (RFUs) graphed against time for inhibitor and control wells, respectively. Values for vi /v0 were plotted as a function of inhibitor concentration with GraphPad Prism and IC50 values were calculated from a nonlinear regression analysis of the data ([Inhibitor] vs. response, three parameters).
# Human 20S Proteasome ChT-L Activity: A well was loaded with 86 µL of buffer (20 mM HEPES, 0.5 mM EDTA, 0.037% SDS, pH 7.8), 2 µL of fluorogenic substrate (Suc-LLVY-AMC, 5 mM in DMSO), 20 µL of human 20S proteasome (0.34 µM in H2O) and either 2 µL of inhibitor (at varying concentrations in DMSO) or 2 µL of DMSO (control). The fluorescent signal of the cleaved AMC chromophore was measured in RFUs at 37 °C over a span of 10 minutes with measurements taken every 20 seconds. […]
# [2] = molecular target: T2, human 20S proteasome T-L activity (Homo sapiens, UniProt Q99436); assay: Fluorometric kinetic enzyme assay, 20S proteasome T-L activity (Ac-RLR-AMC)
# T2 construct: human RBC proteasome was purchased from South Bay Bio; purchased South Bay Bio; host or cells: human red blood cells
# Protocol: as §1, §2
# as §3, with “parameters). […]” for “parameters).”
# Human 20S Proteasome T-L Activity: A well was loaded with 69 µL of buffer (50 mM Tris, 1 mM EDTA, 100 mM NaCl, pH 7.5), 2 µL of fluorogenic substrate (Ac-RLR-AMC, 59 mM in DMSO), 2 µL of human 20S proteasome (2.6 µM in H2O) and either 2 µL of inhibitor (at varying concentrations in DMSO) or 2 µL of DMSO (control). […]
# [3] = molecular target: T3, human 20S proteasome PGPH-L activity (Homo sapiens, UniProt P28072); assay: Fluorometric kinetic enzyme assay, 20S proteasome PGPH-L activity (Cbz-LLE-AMC)
# T3 construct: human RBC proteasome was purchased from South Bay Bio; purchased South Bay Bio; host or cells: human red blood cells
# Protocol: as §1, §2
# as §3, with “parameters). […]” for “parameters).”
# [4] = molecular target: T4, chymotrypsin (Bos taurus, UniProt P00766); assay: Fluorometric kinetic enzyme assay, chymotrypsin (Suc-LLVY-AMC)
# T4 construct: chymotrypsin was purchased from Sigma Aldrich; purchased Sigma Aldrich; host or cells: bovine pancreas
# [5] = molecular target: T5, cathepsin B enzyme from human liver (Homo sapiens, UniProt P07858); assay: Fluorometric kinetic enzyme assay, cathepsin B (Cbz-Arg-Arg-AMC)
# T5 construct: from human liver; purchased Millipore; host or cells: human liver
# [6] = molecular target: T6, m-calpain (Sus scrofa, UniProt P35750); assay: Fluorometric kinetic enzyme assay, m-calpain (Suc-LLVY-AMC)
# T6 construct: erythrocytes calpain-1 were purchased from Millipore; purchased Millipore; host or cells: porcine erythrocytes
# T6 sequence (P35750 1-714): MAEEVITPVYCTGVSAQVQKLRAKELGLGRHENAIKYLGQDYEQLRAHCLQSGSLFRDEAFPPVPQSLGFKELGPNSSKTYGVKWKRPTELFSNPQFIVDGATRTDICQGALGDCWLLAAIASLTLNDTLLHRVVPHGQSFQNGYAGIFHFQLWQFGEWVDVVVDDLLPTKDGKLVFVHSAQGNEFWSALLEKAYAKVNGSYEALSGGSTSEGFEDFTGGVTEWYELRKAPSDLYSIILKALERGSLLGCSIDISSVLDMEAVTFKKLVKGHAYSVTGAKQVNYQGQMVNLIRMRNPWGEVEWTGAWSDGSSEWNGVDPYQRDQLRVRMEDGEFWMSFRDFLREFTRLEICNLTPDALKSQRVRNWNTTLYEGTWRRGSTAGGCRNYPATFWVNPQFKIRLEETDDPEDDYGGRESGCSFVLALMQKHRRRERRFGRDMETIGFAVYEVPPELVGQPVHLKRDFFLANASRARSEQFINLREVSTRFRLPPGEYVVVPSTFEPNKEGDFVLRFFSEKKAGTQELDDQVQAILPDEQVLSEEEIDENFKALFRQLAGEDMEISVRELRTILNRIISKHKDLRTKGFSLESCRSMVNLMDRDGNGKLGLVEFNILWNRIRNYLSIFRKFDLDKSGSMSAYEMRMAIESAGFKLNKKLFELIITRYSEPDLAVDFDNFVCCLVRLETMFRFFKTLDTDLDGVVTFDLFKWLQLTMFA
# T6 sequence (P04574 1-266 partner): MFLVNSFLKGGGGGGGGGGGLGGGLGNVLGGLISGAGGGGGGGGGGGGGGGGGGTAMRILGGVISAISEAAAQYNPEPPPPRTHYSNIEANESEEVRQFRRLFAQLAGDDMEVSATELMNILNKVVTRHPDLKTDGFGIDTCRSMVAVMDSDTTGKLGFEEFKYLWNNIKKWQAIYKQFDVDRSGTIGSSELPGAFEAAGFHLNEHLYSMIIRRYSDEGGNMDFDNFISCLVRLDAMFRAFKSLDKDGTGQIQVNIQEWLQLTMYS
# [7] = human 20S proteasome, Ac-RLR-AMC, N.I. = no inhibition at 130 μM, read-out: IC50 20S Proteasome T-L Activity
# [8] = human 20S proteasome, Cbz-LLE-AMC, N.I. = no inhibition at 130 μM, read-out: IC50 20S Proteasome PGPH-L Activity
# [9] = Suc-LLVY-AMC, N.I. = no inhibition at 130 μM, read-out: IC50 Chymotrypsin
# [10] = human liver enzyme, Cbz-Arg-Arg-AMC, pH 6.0, N.I. = no inhibition at 130 μM, read-out: IC50 Cathepsin B
# [11] = Suc-LLVY-AMC, N.I. = no inhibition at 130 μM, read-out: IC50 m-Calpain
Compound,IC50 [1],"IC50 [2, 7]","IC50 [3, 8]","IC50 [4, 9]","IC50 [5, 10]","IC50 [6, 11]","inhibition of T-L activity, in words [2]","inhibition of PGPH-L activity, in words [3]","inhibition of chymotrypsin, in words [4]","inhibition of cathepsin B, in words [5]","inhibition of m-calpain, in words [6]",fold lower potency (ChT-L) than macrocycle 5 ([1]; linear analogue versus macrocyclic 5),IC50 [2],IC50 [3],IC50 [4],IC50 [5],IC50 [6],"inhibitory potency for the proteasome, in words ([1]; comparison among tested inhibitors)"
CC(=O)N[C@H]1Cc2ccc([N+](=O)[O-])c(c2)Oc2ccc(cc2)C[C@@H](C(=O)N[C@@H](CC(C)C)C(=O)[C@@]2(C)CO2)NC(=O)[C@H](CC(C)C)NC1=O [15a],0.55 ± 0.09 µM,> 130 µM,> 130 µM,> 130 µM,> 130 µM,> 130 µM,,,,,,,,,,,,
CC(=O)N[C@H]1Cc2ccc([N+](=O)[O-])c(c2)Oc2ccc(cc2)CC[C@@H](C(=O)N[C@@H](CC(C)C)C(=O)[C@@]2(C)CO2)NC(=O)[C@H](CC(C)C)NC1=O [15b],2.9 ± 0.42 µM,> 130 µM,> 130 µM,> 130 µM,> 130 µM,> 130 µM,,,,,,,,,,,,
"CC(C)C[C@H](NC(=O)[C@H](CCc1ccccc1)NC(=O)CN1CCOCC1)C(=O)N[C@@H](Cc1ccccc1)C(=O)N[C@@H](CC(C)C)C(=O)[C@@]1(C)CO1 [carfilzomib, reference compound]",,,,> 130 µM,> 130 µM,> 130 µM,,,,,,,,,,,,
CC(=O)N[C@H]1Cc2ccc([N+](=O)[O-])c(c2)Oc2ccc3c(c2)C(C[C@@H](C(=O)N[C@@H](CC(C)C)C(=O)[C@@]2(C)CO2)NC(=O)[C@H](CC(C)C)NC1=O)C(=O)N3 (stereo partly drawn) [compound 5],0.19 ± 0.02 µM,> 130 µM,52.5 ± 16.6 µM,> 130 µM,> 130 µM,> 130 µM,does not significantly inhibit,does not significantly inhibit,not found to have any cross-reactivity,not found to have any cross-reactivity,not found to have any cross-reactivity,,,,,,,
CC(=O)N[C@@H](Cc1ccc([N+](=O)[O-])c(F)c1)C(=O)N[C@@H](CC(C)C)C(=O)N[C@@H](CC1C(=O)Nc2ccc(O)cc21)C(=O)N[C@@H](CC(C)C)C(=O)[C@@]1(C)CO1 (stereo partly drawn) [compound 6],1 ± 0.1 µM,,,,,,,,,,,4 fold,> 130 µM,> 130 µM,> 130 µM,> 130 µM,> 130 µM,
CC(=O)N[C@H]1Cc2ccc([N+](=O)[O-])c(c2)Oc2ccc3c(c2)C(C[C@@H](C(=O)N[C@@H](CC(C)C)C(N)=O)NC(=O)[C@H](CC(C)C)NC1=O)C(=O)N3 (stereo partly drawn) [compound 12],25 ± 1 µM,46.1 ± 3.1 µM,> 130 µM,> 130 µM,> 130 µM,> 130 µM,,,,,,,,,,,,least potent inhibitor
"CC(C)C[C@@H](C=O)NC(=O)[C@@H]1Cc2ccc(cc2)Oc2cc(ccc2[N+](=O)[O-])C[C@H](NC(=O)OCc2ccccc2)C(=O)N[C@@H](CC(C)C)C(=O)N1 [compound 16, reference compound]",0.24 ± 0.06 µM,> 130 µM,7.51 ± 2.32 µM,> 130 µM,3.1 ± 1 µM,2 ± 0.3 µM,,,,inhibits,inhibits,,,,,,,
